Source: US11337426B2, “Biological control agents against fire blight” (priority 2018, dated 2022)

What was measured:
E. amylovora S435 [1] = assay: Management of fire blight on shoots of potted McIntosh apple trees; assay type: in vivo, Erwinia amylovora; conditions: treated 2 h after inoculation, formulations diluted to 20%, streptomycin 100 ppm, 10 d
Protocol: A trial was conducted at the IRDA research station in Saint-Bruno-de-Montarville, Québec to evaluate the efficacies of the best isolates previously screened. To simulate fire blight, Malus x domestica ‘McIntosh’ cultivar trees were inoculated then treated 2 h later with 20% (w/w) isolate dilutions. Inoculum was obtained by suspending a 5-d culture of the virulent strain E. amylovora […] in potassium phosphate buffer (pH=6.5) in King B agar which favors the growth of this phytopathogen. The bacterial density was adjusted to ˜1×10^9 CFU/mL. Actively growing potted trees (cv. McIntosh grafted onto M26) were inoculated by transversely bisecting the two youngest leaves with scissors dipped in the inoculum. One or two shoots were inoculated per tree. Two hours after inoculation, candidate biological control agent suspensions were sprayed to runoff onto five trees per treatment using a low-pressure sprayer. The experimental design was completely randomized.
Inoculated controls were sprayed either with water or with the medium used to formulate the candidate biocontrol products. Uninoculated controls were sprayed only with water. […] Severity scores were analyzed with a cumulative link mixed model (clmm) in the “ordinal” package of R. Treatment and observation date were used as fixed effects. […]

[2] = tested on: Erwinia amylovora strain S01; assay: Field trial to control fire blight on Rome apple trees, Geneva NY; assay type: in vivo
Protocol: A field trial was conducted to determine the performance of the formulated product based on the vegetative cells of Pseudomonas poae FL10F and its extracellular metabolites produced in the supernatants and was compared to antibiotic (FireWall 17 WP Streptomycin), copper fungicide (Cueva, Certis, USA) and the biological product Blossom Protect based on two strains of Aureobasidium pullulans. […] Both antibiotic and copper that were used in this trial were EPA registered products. Pseudomonas poae FL10F was cultivated for 2 days at 30° C. and 200 rpm and reached an OD600 nm=2.50, which was empirically determined to represent 2.50×10^9 CFU/mL by plating serial dilutions of the suspension and counting colonies. A 4L of product based on Pseudomonas poae FL10F and its metabolites was produced as described above and was sprayed more than 2 months later on apple Rome trees. Three samples of this formulated product were retained in sterile 50 mL polypropylene centrifuge tubes at room temperature for long-term activity and bacterial count studies.
The 4L product was used during in a field trial conducted in Phelps, (Geneva) NY to evaluate the product against fire blight. Apple Rome were used for this study that had 5 to 12 blossom clusters per tree. These were 1-year-old trees from Waffler Nursery, Wolcott, N.Y.
The experimental treatments were applied using a CO2 Backpack sprayer that was calibrated to deliver 100 gallons per acre (Trees were sprayed to first drip with a “dilute” solution of products.) The sprayer was calibrated at 42 PSI and used 2 Hollow Cone (TXVK18) Nozzles.
An evaluation of treatments was conducted using the method where scissors were dipped into a solution of a streptomycin sensitive Erwinia amylovora strain S01, and the two smallest leaves on each terminal or shoot were cut in half. This severe test is used to simulate infection that can occur following hailstorms. The scissors were dipped into the Erwinia amylovora S01 solution prior to each cut. The apical terminal shoot and the terminal leaves on any side shoots were cut. For the size of these trees, the number of terminals that were cut varied from 9 to 18. To evaluate the treatments for this method, each treatment was applied as before to all leaves and shoots of seven individual trees. The inoculations occurred near dusk, and 1.15 inches of rain occurred during the overnight period. All treatments were applied 30 minutes before the infection and then re-applied 24 hours after the initial inoculation. The second application of treatments was applied to the same trees. The product based on Fluorescent Pseudomonas poae FL10F and its metabolites was first diluted at a concentration of 20% (w/w) with water then it was mixed properly and sprayed.
At 3 weeks following the scissor inoculation, each terminal shoot was rated for the length in inches with typical symptoms of fire blight (rated as SEVERITY). Then the percentage of all shoots that had any symptoms of fire blight was calculated as INCIDENCE).
The objective of this trial was to compare the activity of P. poae FL with antibiotic (Streptomycin), copper fungicide (Cueva, Certis, USA) and the biological product Blossom Protect based on two strains of Aureobasidium pullulans (Porter et al., 1960). Apple trees were infected with […] CFU/mL solution of Erwinia amylovora. The concentration of various treatments applied are represented in Table 13. The medium used in Treatment 7 is the same one used to cultivate the P. poae FL composed of Nutrient Broth NB (Difco) supplemented with 0.5% (w/w) glycerol and a concentration of 4% NaCl (w/w). Neither the medium nor the treatments used were phytotoxic to apple leaves and no phytotoxicity was noted on the apple trees in this study.

E. amylovora S435 [3] = assay: Agar disc diffusion assay of cell-free supernatants and fractions; assay type: cell-based, Erwinia amylovora; conditions: active fraction from bioassay-guided fractionation
Protocol: To obtain cell-free supernatants, cultures of both strains were centrifuged at 25 000 rpm for 1 hour. The pellets were discarded and the supernatants were filtered using Stericup™ vacuum filtration system (0.2 μm). Fresh cell-free supernatants were used for the present research, but they could also be stored at +4° C. for one week, or at −20° C. for 6 months, while keeping their activity.
1 L of each bacterial culture was combined, and biomass was removed by centrifugation at 17 700×g for 20 min. The cell-free medium supernatant was applied to 40 g of pre-equilibrated Amberlite™ XAD-16 resin packed in a column. The XAD-16 column was subsequently washed with 1 L of H2O, and then eluted with 1 L of 100% methanol. The methanolic elution was evaporated to dryness by rotary evaporation, and the brown residue was redissolved in 5 ml of purified water (Milli-Q system; Millipore, Bedford, Mass.). The concentrated solution was then applied onto a 12 gram Biotage® SNAP Ultra C18 column to be fractionate using reverse-phase flash chromatography on a Biotage (Stockholm, Sweden) Isorela One instrument. This chromatography was performed using a linear gradient acetonitrile from 5% to 100% over 50 min at 15 ml min^−1. […] The bioactivity of these fractions was further determined by performing agar disc diffusion assay. […]

[4] = 3 weeks, Strepmycin 2.4 oz wt/a

| Compound | Median score (disease severity 0-4) (E. amylovora S435 [1]) | Fire blight Severity: Average length of shoot with symptoms of Fire blight ([2]; 3 weeks after scissor inoculation, Strepmycin 8 oz wt/a, Cueva 64 fl oz/a, P. poae FL10F 20 % v/v, Blossom Protect 20 oz wt/a) [INCHES] | Fire blight Incidence: Average percentage of shoots with symptons of Fire blight following inoculation [2, 4] [%] | Fire blight Severity: Average length of shoot with symptoms of Fire blight [2, 4] [INCHES] | Fire blight Incidence: Average percentage of shoots with symptons of Fire blight following inoculation ([2]; 3 weeks, Strepmycin 8 oz wt/a, Cueva 64 fl oz/a, P. poae FL10F 20 % v/v, Blossom Protect 20 oz wt/a) [%] | Phytotoxicity: Percentage of leaves with atypical symptoms ([2]; Strepmycin 2.4 oz wt/a) [%] | Phytotoxicity: Percentage of leaves with atypical symptoms ([2]; Strepmycin 8 oz wt/a, Cueva 64 fl oz/a, P. poae FL10F 20 % v/v, Blossom Protect 20 oz wt/a) [%] | inhibition halos of the extracellular metabolite fraction on a lawn of E. amylovora S435 (E. amylovora S435 [3]) |
| --- | --- | --- | --- | --- | --- | --- | --- | --- |
| [H]/N=C(/N)N[C@H]1[C@H](O)[C@@H](O)[C@H](O[C@@H]2O[C@@H](C)[C@](O)(C=O)[C@H]2O[C@@H]2O[C@@H](CO)[C@H](O)[C@@H](O)[C@@H]2NC)[C@@H](N/C(N)=N\[H])[C@@H]1O [Streptomycin] | 0 | 3.89 | 81.73 | 5.53 | 52.39 | 0.00 | 0.00 | – |
| oxydifficidin | – | – | – | – | – | – | – | comparable in diameter to that of the live strain itself or crude extracellular metabolites therefrom |
| white line-inducing principle [WLIP] | – | – | – | – | – | – | – | comparable in diameter to that of the live strain itself or crude extracellular metabolites therefrom |
